Test results reported in publication PMC10988555, “Exploiting Co(III)-Cyclopentadienyl Complexes To Develop Anticancer Agents” (Inorganic Chemistry, 2024).

What was measured:
A2780 cell line = assay: Autophagy induction, flow cytometry; format: cell-based, human; conditions: A2780, 48 h; complexes at IC50, DOX 0.4 μM, cisplatin 5 μM; rapamycin 500 nM for 15 h
Experimental: The autophagy induced by complexes 2–4 was evaluated using the Autophagy Assay Kit (ab139484, Abcam, Cambridge, United Kingdom) according to the manufacturer’s instructions. For this, the A2780 cell line was seeded at a density of 2 × 10^5 cells/well in 6-well plates and incubated for 24 h at the conditions mentioned before. […] The positive control Rapamycin at 500 nM was incubated for only 15 h. After 48 h incubation, the cells were washed with PBS 1×, detached with TE, and treated with the Autophagy detection kit (Abcam, Cambridge, UK) according to the manufacturer’s instructions. The evaluation of autophagy induction was done through the Attune acoustic focusing flow cytometer (ThermoFisher Scientific) and respective software.

A2780 cells = assay: Cell cycle progression (PI flow cytometry, double thymidine block); format: cell-based, human; conditions: A2780, 24 h; complexes at IC50, DOX 0.4 μM, cisplatin 5 μM
Experimental: The interference of the copper complexes 2–4 in the cell cycle progression was evaluated in A2780 cells, seeded in 6-weel plates, with a density of 2 × 10^5 cells/well, and incubated for 8 h at the same conditions as described above. After that incubation time, the cells were synchronized in early S-phase with a 2 mM thymidine solution (Sigma, St. Louis, USA) for a 16 h period. Media with thymidine was replaced by fresh media and, after 8 h, another 2 mM thymidine solution was added to the wells (double thymidine block) and incubated for 16 h. […] Cells were incubated for 9, 18, or 24 h, and, at each hour, the cells were treated with TE and centrifuges at 650 × g for 5 min at 4 °C. The pellet was resuspended in PBS 1× and centrifuged at 3000 × g for 5 min at 4 °C. Later, the pellet was resuspended in 100 μL of PBS 1×, and 1 mL of a solution of 80% (v/v) ethanol was gently added to the cells. Cells were stored at 4 °C for at least 12 h and then centrifuged for 10 min at 7500 × g at 4 °C, treated with 250 μL of 50 μg/mL RNase A, and incubated for 30 min at 37 °C. After incubation, 100 μL of PI (25 μg/mL) was added to the cells as well as 650 μL of PBS 1×. The DNA content was evaluated on an Attune Acoustic Focusing Flow Cytometer (ThermoFisher Scientific) and results were analyzed by the respective software.

[1] = test system: A2780 (human ovarian carcinoma) cell line; assay: Antiproliferative activity, MTS assay, A2780; format: cell-based; conditions: for IC50: 48 h exposure, MTS assay; for Selectivity index (SI) of ligands, A2780: Table S3, values with * calculated taking fibroblast IC50 as 100 µM (minimal value)
Experimental: (§1) Human colorectal carcinoma cell line (HCT116), human breast cancer cell lines (MDA-MB-231 and MCF-7), and normal human primary dermal fibroblasts neonatal (PCS-201-010) cell line were grown in DMEM (Dulbecco’s modified Eagle’s medium) (Invitrogen Corp., Grand Island, NY, USA) supplemented with 10% (v/v) fetal bovine serum and 1% (v/v) antibiotic/antimycotic solution (Invitrogen Corp.). The human ovarian carcinoma (A2780) cell line was cultivated using RPMI (Roswell Park Memorial Institute) medium supplemented as in DMEM medium. The supplemented medium is named a complete medium. Cells were grown in an incubator with a humidified atmosphere at 5% (v/v) CO2 and 37 °C. All cell lines were purchased from ATCC (ATCC, American Type Culture Collection).
(§2) The evaluation of the cytotoxic potential of complexes 1–4 was obtained through in vitro measurements of the antiproliferative activity of these complexes. Cells were plated in 96-well plates at 7.5 × 10^4 cells/mL and incubated at 37 °C with 5% (v/v) CO2. After 24 h, the culture medium was replaced with fresh medium (100 μL) containing 0.1–50 μM of the different complexes and incubated for 48 h in tumor cell lines or containing 0.1–100 μM of the different complexes and incubated for 48 h in fibroblasts. […] The fibroblast cell line was used as a control of the cytotoxicity of the complexes for healthy cells. Cell viability was evaluated using Cell Titer 96 Aqueous Non-Radioactive Cell Proliferation Assay (Promega, Madison, WI, USA) using 3-(4,5-dimethylthiazol-2-yl)-5-(3-carboxymethoxyphenyl)-2-(4-sulfophenyl)-2H-tetrazolium inner salt (MTS), as described previously.[60] In metabolically active cells, enzymes present in the mitochondria catalyze a reaction in which NADPH/NADH is produced. These enzymes reduce the MTS reagent into a brownish product, Formazan, which can be quantified by measuring the absorbance at 490 nm. The quantity of formazan produced is directly proportional to the number of viable cells in the culture. This quantification was executed with a Biorad microplate reader Model 680 (Bio-Rad, Hercules, CA, USA). Half maximal inhibitory concentration (IC50) was calculated using GraphPad Prism 6 (GraphPadSoftware). We have calculated the ratio between the IC50 of fibroblasts and the IC50 of HCT116, A2780, MDA-MB-231, or MCF-7 cell lines for complexes 1–4 that was named herein as the Selectivity index (SI). To ensure the solubility of the complexes in all biological assays, complex solutions were freshly prepared and well solubilized before addition to the cells.

[2] = test system: HCT116 (human colorectal carcinoma) cell line; assay: Antiproliferative activity, MTS assay, HCT116; format: cell-based; conditions: for IC50: 48 h exposure, MTS assay; for Selectivity index (SI) of ligands, HCT116: Table S3, values with * calculated taking fibroblast IC50 as 50 µM (minimal value)
Experimental: as §1, §2

[3] = test system: normal human primary dermal fibroblasts; assay: Antiproliferative activity, MTS assay, healthy fibroblasts; format: cell-based; conditions: 48 h exposure, healthy human cells
Experimental: as §1, §2

[4] = Octanol-water partition coefficient, shake-flask method; format: physicochemical; conditions: room temperature
Experimental: The lipophilicity of the CoCp complexes was estimated by the shake-flask method.[54] Before the assays, n-octanol was vigorously mixed with distilled water for 24 h at room temperature to promote solvent saturation of both phases. After separating the phases, the complexes were dissolved in the n-octanol phase to obtain solutions 1.0 × 10^–5 to 2.5 × 10^–4 M. Then, each solution was equilibrated with water for 4 h in a mechanical shaker, at a phase ratio of 2 mL n-octanol:2 mL water. Afterward, the aqueous and octanol layers were carefully separated by centrifugation (5000 rpm, 10 min), and the UV–vis absorption spectra of the complexes were recorded in the n-octanol phase. For each sample, the concentration was determined by using a calibration curve in n-octanol. All experiments were performed in triplicate for each complex, being the averages used for calculation purposes. Finally, the values of the partition coefficients were calculated by resorting to the following eq (eq 1): [drawing 1] 1 where logPoct/water represents the octanol–water partition coefficient, [complex]oct represents the concentration of the complex in the n-octanol phase, and [complex]water represents the concentration of the complex in the water phase.

[5] = test system: MDA-MB-231 (human breast cancer) cell line; assay: Antiproliferative activity, MTS assay, MDA-MB-231; format: cell-based; conditions: 48 h exposure
Experimental: as §1, §2

[6] = test system: MCF-7 (human breast cancer) cell line; assay: Antiproliferative activity, MTS assay, MCF-7; format: cell-based; conditions: 48 h exposure, MTS assay
Experimental: as §1, §2

DNA of A2780 cells = assay: Single-cell gel electrophoresis (comet assay); format: cell-based, human; conditions: A2780; complexes 10× IC50 for 12 h; H2O2 0.05% for 30 min at RT
Experimental: A2780 cells were seeded in 6-well plates with a density of 1 × 10^6 cells/well and incubated for 24 h in an incubator with a humidified atmosphere at 5% (v/v) CO2 and 37 °C. […] The complexes and DMSO were incubated at 37 °C for 12 h and H2O2 for 30 min at RT. Cells were harvested with a cell scraper and solutions with 1 × 10^5 cells/mL in PBS were prepared. It was withdrawn 10 μL from the solutions and added to 90 μL of 1.5% (w/v) low melting point agarose in 1× PBS and dropped on the slides prepared previously with a coating of 1.5% (w/v) agarose (normal melting point agarose) in 1× TAE buffer. After drying at 4 °C for 15 min, the slides were dipped into lysis solution (450 mM NaCl, 3.72% EDTA, 5 mM Tris; to which 10% (v/v) DMSO and 1% (v/v) Triton-X were added just before use) for 1 h at 4 °C, followed by their being dipped for 40 min into cold electrophoresis solution (1 mM EDTA, 300 mM NaOH, pH 13). Electrophoresis was performed at 4 °C for 30 min at 25 V using a Sub-Cell model 96 apparatus (Bio-Rad). Afterward, slides were placed in 0.1 M Tris–HCl buffer (pH 7.5) at 4 °C for 15 min for neutralization, followed by 15 min in methanol at 4 °C and drying at 37 °C. For visualization of comets, slides were hydrated with distilled water at 4 °C for 30 min, stained with 20 μL of GelRed working solution (3×), and covered with new coverslips. The slides were observed under a Ti–U Eclipse inverted microscope (Nikon Instruments, Japan) and analyzed by CometScore version 2.1 (TriTek). About 100 cells per sample were analyzed. The percentage of DNA in the tail was used as a measure of the total DNA strand breakage.

SMILES | IC50 ([1]; Homo sapiens, A2780) [µM] | IC50 ([2]; Homo sapiens, HCT-116) [µM] | Selectivity index (SI) of ligands, A2780 [1] | IC50 ([3]; Fibroblast) [µM] | also measured
N.N.[Cl][Pt][Cl] [cisplatin, reference compound] | – | – | – | – | levels of autophagy (A2780 cell line): 96.7%; % of cells in the G2/M phase (A2780 cells): 31.3%; IC50 [1]: 1.9 ± 0.2 µM; IC50 [2]: 15.6 ± 5.3 µM
COc1cccc2c1C(=O)c1c(O)c3c(c(O)c1C2=O)C[C@@](O)(C(=O)CO)C[C@@H]3O[C@H]1C[C@H](N)[C@H](O)[C@H](C)O1 [doxorubicin, reference compound] | 0.1 ± 0.1 | 0.5 ± 0.1 | – | – | levels of autophagy (A2780 cell line): 84.1%; % of cells in the G2/M phase (A2780 cells): 77.9%
O=[C]=[Co]([I])([I])[CH]1C=CC=C1 [[CoCp(CO)I2]] | – | – | 1.7 | – | IC50 [3]: > 50 µM; IC50 [1]: 29.9 ± 0.1 µM; IC50 [2]: > 50 µM
c1cnc2c(c1)ccc1cccnc12 [Phen, 1,10′-phenanthroline] | 2.4 ± 0.05 | 4.1 ± 0.04 | 20.9 | 50.1 ± 0.1 | Selectivity index (SI) of ligands, HCT116 [2]: 12.4
CO[C@H]1C[C@@H]2CC[C@@H](C)[C@@](O)(O2)C(=O)C(=O)N2CCCC[C@H]2C(=O)O[C@H]([C@H](C)C[C@@H]2CC[C@@H](O)[C@H](OC)C2)CC(=O)[C@H](C)/C=C(\C)[C@@H](O)[C@@H](OC)C(=O)[C@H](C)C[C@H](C)/C=C/C=C/C=C/1C [rapamycin, Rapamycin, reference compound] | – | – | – | – | levels of autophagy (A2780 cell line): 72.93%
O=S(=O)([O-])C(F)(F)F.O=S(=O)([O-])C(F)(F)F.[Co+3].c1cc[cH-]c1.c1ccc(-c2ccccn2)nc1.c1ccc(P(c2ccccc2)c2ccccc2)cc1 [Complex 1, [Co(η^5-C5H5)(PPh3)(bipy)][(CF3SO3)2]] | – | – | – | – | logP (n-octanol/water partition coefficient) [4]: −0.67 ± 0.02; IC50 [3]: > 100 µM; IC50 [1]: 18.1 ± 0.1 µM; IC50 [5]: > 50 µM; IC50 [6]: > 50 µM; IC50 [2]: > 50 µM
c1ccc(P(c2ccccc2)c2ccccc2)cc1 [PPh3, triphenylphosphane] | 37.8 ± 0.1 | > 50 | 1.3 | > 50 | –
Nc1cc2cccnc2c2ncccc12 [NH2phen, 5-amino-1,10′-phenanthroline] | 1.9 ± 0.08 | 2.3 ± 0.06 | 15.2 | 29.9 ± 0.4 | Selectivity index (SI) of ligands, HCT116 [2]: 13.1
c1ccc(-c2ccccn2)nc1 [bipy, 2,2′-bipyridine] | > 50 | > 50 | – | > 50 | –
Cc1ccnc(-c2cc(C)ccn2)c1 [Me2bipy, 4,4′-dimethyl-2,2′-bipyridine] | 17.6 ± 0.1 | 12.4 ± 0.2 | 2.8 | > 50 | fold less cytotoxic than Phen and NH2phen ligands ([1]; free ligand, A2780 and HCT116): about 10 fold; Selectivity index (SI) of ligands, HCT116 [2]: 4.0
OO [hydrogen peroxide, reference compound] | – | – | – | – | % of DNA in the tail (DNA of A2780 cells): 73%
